Results on two molecules are retold here after patent publication US20220378776A1, “DRUG COMBINATION OF QUINOLINE DERIVATIVE AND PD-1 MONOCLONAL ANTIBODY” (CHIA TAI TIANQING PHARMACEUTICAL GROUP CO., LTD, priority 2019, published 2022).

In one data set the test system is advanced NSCLC. The following applies: phase 3, Chinese patients; cited from earlier work.
For data set [1] the following is noted: phase 2 clinical trial; cited from earlier work.
Data set [2] in a line: Expected steady state exposure of sintilimab 200 mg Q3W. In kind it is in vivo. On the procedure: In some embodiments of the present application, sintilimab is administered at a single dose of 200 mg by intravenous infusion, once every 3 weeks, and every 3 weeks is a treatment cycle.
The selection of the administration mode of sintilimab in this study was mainly based on the data of safety and exposure (concentration)-response (PD-1 receptor occupancy) relationship in the currently completed preliminary studies, combined with the preclinical in vitro/in vivo efficacy and related comparison data of similar drugs.

With `COc1cc2c(Oc3ccc4[nH]c(C)cc4c3F)ccnc2cc1OCC1(N)CC1` [anlotinib, 1-[[[4-(4-fluoro-2-methyl-1H-indol-5-yl)oxy-6-methoxyquinolin-7-yl]oxy]methyl]cyclopropylamine], in the data set on advanced NSCLC, the overall survival entry was “prolonged”, the progression-free survival result is “prolonged” and the tolerability entry is “well tolerated”. In data set [1], the overall survival entry is “potential benefit in overall survival” and the progression-free survival entry is on record as “improve progression-free survival”.

With “sintilimab: anti-PD-1 human IgG4 monoclonal antibody; heavy chain SEQ ID NO: 10, light chain SEQ ID NO: 9; antibody D of CN108473977A”, the “time of continuous administration to reach steady state” value in data set [2] (200 mg Q3W (4 times)) stood at 84 days. For the same molecule, in data set [2] (200 mg Q3W continuously for 84 days (4 times)), the “mean steady state trough concentration” value is on record as “about 26 μg/mL”.
